Reference: PMC10746543, “Design principles for cyclin K molecular glue degraders” (Nature Chemical Biology, 2023)
Values joined by “and” are separate entries in the source; they are usually repeats but may differ in a detail not shown here. Identical values can stand only once. Like-named read-outs stand apart in the source and are kept apart here.

Experiments:
CDK12–cyclin K and DDB1 = biological target: T1, CDK12–cyclin K and DDB1 (Homo sapiens, UniProt Q16531+Q9NYV4, K965R); assay: TR-FRET ternary complex formation assay (compound titration); type: binding; details: for EC50: read-out: TR-FRET EC50
T1 construct: His6–CDK12 (a.a. 713–1,052); full-length or beta-propeller B domain deletion (ΔBPB: a.a. 396–705 deleted) constructs of His6–DDB1ΔBPB, StrepII–Avi–DDB1, or His6–Spy–DDB1; made in house; host or cells: Trichoplusia ni High Five insect cells (baculovirus)
Procedure, shortened: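 Delayed (70 μs) time-resolved read; FRET computed as 520 nm over 490 nm emission.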

[1] = test system: cyclin K–eGFP degradation reporter; assay: Cyclin K reporter stability analysis (dual-color cyclin K–eGFP reporter); type: cell-based, human; details: source data sheet correlations; read-out: DC50
Procedure, shortened: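 Readout was the eGFP-to-mCherry geometric-mean ratio by flow cytometry, normalized to three DMSO controls, after 5 h drug exposure. Cells used were HEK293T–Cas9 expressing the dual-colour cyclin K–eGFP degradation reporter.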

HEK293T cells = assay: Drug sensitivity assay (CellTiter-Glo viability) with or without MLN4924 pretreatment; type: cell-based, human; details: Supplementary Table 2
Procedure, shortened: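 Viability of HEK293T–Cas9 cells was compared after 3-day drug treatment with or without 100 nM MLN4924 pretreatment (2 h, versus DMSO). Values are CellTiter-Glo signals relative to DMSO controls.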

CDK12–cyclin K = CDK12–cyclin K (Homo sapiens, UniProt Q9NYV4); assay: Lanthascreen kinase binding assay, CDK12; details: for Lanthascreen raw signal, sheet CDK12: series r37, duplicates
Method: (§1) Lanthascreen experiments were performed using commercially available reagents (Thermo Fisher) and according to the manufacturer’s instructions.

CDK9–cyclin T = biological target: T2, CDK9–cyclin T (Homo sapiens, UniProt P50750); assay: Lanthascreen kinase binding assay, CDK9; details: for Lanthascreen TR-FRET signal (raw ratio), sheet CDK9: third titration set (r25), duplicates
T2 construct: purchased Thermo Fisher
Method: as §1

CDK2–cyclin A = biological target: T3, CDK2–cyclin A (Homo sapiens, UniProt P24941); assay: Lanthascreen kinase binding assay, CDK2; details: for Lanthascreen signal, sheet CDK2: raw replicates, experiment r36-r46
T3 construct: purchased Thermo Fisher
Method: as §1

T1 sequence (Q9NYV4 713-1052 K965R): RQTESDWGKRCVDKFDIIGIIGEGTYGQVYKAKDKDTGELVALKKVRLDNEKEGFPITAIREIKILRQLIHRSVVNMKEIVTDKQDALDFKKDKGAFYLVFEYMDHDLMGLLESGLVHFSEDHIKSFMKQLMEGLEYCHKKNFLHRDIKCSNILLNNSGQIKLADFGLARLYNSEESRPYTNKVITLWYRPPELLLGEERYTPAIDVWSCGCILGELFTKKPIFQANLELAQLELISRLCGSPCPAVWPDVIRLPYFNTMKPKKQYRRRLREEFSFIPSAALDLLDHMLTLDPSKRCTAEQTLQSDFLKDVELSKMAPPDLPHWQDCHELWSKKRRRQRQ
T1 sequence (O75909 1-267 partner): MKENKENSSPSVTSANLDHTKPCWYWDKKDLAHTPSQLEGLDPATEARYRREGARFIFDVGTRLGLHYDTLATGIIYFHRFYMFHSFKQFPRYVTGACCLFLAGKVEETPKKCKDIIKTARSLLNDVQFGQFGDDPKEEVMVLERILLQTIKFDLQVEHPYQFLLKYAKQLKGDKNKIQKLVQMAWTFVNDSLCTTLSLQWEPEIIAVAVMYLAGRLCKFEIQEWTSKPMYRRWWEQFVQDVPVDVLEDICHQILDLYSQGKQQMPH
T1 sequence (Q16531 whole entry): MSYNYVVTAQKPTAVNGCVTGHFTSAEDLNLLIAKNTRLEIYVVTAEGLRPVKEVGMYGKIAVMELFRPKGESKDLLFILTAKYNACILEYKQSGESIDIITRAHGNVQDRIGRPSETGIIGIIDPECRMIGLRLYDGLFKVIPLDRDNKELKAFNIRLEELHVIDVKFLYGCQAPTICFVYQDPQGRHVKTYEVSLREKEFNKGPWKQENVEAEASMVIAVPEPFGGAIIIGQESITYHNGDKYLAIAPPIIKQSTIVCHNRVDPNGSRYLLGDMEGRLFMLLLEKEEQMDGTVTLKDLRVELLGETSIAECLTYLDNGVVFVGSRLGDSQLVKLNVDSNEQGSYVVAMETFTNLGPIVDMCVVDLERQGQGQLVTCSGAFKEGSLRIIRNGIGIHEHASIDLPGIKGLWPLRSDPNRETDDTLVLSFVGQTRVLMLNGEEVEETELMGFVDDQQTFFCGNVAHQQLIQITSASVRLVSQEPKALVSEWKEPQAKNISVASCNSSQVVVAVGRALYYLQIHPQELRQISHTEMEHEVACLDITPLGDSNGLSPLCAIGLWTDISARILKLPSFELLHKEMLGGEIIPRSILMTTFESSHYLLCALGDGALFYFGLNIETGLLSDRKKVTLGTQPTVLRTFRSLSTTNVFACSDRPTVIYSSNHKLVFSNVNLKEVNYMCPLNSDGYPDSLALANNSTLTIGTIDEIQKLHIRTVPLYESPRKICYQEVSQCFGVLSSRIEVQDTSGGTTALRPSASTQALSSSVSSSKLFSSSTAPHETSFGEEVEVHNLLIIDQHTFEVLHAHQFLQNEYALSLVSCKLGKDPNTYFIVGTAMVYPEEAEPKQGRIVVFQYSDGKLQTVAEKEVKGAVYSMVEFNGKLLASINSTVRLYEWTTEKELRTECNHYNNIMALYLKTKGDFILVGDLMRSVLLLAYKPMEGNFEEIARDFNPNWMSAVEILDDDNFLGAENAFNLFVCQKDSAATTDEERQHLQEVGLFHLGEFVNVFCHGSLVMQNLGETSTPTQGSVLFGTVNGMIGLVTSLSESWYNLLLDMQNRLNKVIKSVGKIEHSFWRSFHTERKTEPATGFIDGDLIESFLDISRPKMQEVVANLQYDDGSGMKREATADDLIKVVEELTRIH
T2 sequence (P50750 whole entry): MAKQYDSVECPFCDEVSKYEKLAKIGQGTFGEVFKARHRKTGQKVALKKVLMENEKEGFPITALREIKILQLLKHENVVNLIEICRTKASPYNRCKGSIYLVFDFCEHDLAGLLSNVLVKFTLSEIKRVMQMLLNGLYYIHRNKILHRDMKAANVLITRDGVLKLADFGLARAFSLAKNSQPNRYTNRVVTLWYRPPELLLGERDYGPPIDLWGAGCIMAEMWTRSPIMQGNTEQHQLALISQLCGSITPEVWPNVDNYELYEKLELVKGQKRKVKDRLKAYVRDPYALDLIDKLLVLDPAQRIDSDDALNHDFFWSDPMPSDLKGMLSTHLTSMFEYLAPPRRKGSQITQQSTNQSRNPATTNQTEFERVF
T2 sequence (O60563 whole entry partner): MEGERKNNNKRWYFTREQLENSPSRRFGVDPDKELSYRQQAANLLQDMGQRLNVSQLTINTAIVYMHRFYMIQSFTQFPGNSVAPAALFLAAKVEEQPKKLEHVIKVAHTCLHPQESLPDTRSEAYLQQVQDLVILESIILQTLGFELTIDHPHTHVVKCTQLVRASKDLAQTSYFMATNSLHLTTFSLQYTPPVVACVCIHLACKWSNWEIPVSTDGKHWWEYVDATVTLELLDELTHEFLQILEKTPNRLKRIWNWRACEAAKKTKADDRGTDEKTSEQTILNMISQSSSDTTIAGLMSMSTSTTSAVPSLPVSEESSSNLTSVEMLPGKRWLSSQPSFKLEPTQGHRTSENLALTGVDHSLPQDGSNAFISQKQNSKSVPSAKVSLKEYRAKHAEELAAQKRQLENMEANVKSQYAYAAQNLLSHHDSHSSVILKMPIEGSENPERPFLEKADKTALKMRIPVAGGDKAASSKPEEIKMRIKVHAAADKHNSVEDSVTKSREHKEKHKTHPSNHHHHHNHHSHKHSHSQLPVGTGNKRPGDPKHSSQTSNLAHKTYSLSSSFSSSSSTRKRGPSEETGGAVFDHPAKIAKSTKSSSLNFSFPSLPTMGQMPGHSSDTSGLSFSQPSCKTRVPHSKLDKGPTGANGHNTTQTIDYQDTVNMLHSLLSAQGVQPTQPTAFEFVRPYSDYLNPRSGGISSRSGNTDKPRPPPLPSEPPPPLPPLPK
Chain of CDK12–cyclin K (Q9NYV4 713-1052): as the sequence (Q9NYV4 713-1052 K965R) above, with R253K counted along it
Chain of CDK12–cyclin K (O75909 1-267 partner limits assumed): as the sequence (O75909 1-267 partner) above

CC(C)n1cnc2c(NCc3nc4cc(Cl)c(Cl)cc4[nH]3)nc(N3CCOCC3)nc21 [DS18]
TR-FRET signal at compound concentration 0.468 nM (CDK12–cyclin K and DDB1; compound concentration 0.468 nM, raw replicate titration data): 0.2789 and 0.2869 and 0.2441 and 0.2388
TR-FRET signal at compound concentration 2.16 nM (CDK12–cyclin K and DDB1; compound concentration 2.16 nM, raw replicate titration data): 0.4628 and 0.4735 and 0.4069 and 0.4155
TR-FRET signal at compound concentration 3.6 nM (CDK12–cyclin K and DDB1; compound concentration 3.6 nM, raw replicate titration data): 0.8592 and 0.9781 and 0.8008 and 0.8631
TR-FRET signal at compound concentration 7.92001 nM (CDK12–cyclin K and DDB1; compound concentration 7.92001 nM, raw replicate titration data): 1.943 and 2.09 and 1.796 and 1.964
TR-FRET signal at compound concentration 15.84 nM (CDK12–cyclin K and DDB1; compound concentration 15.84 nM, raw replicate titration data): 3.635 and 3.77 and 3.448 and 3.586
TR-FRET signal at compound concentration 30.96 nM (CDK12–cyclin K and DDB1; compound concentration 30.96 nM, raw replicate titration data): 4.1538 and 4.3056 and 4.1745 and 4.207
TR-FRET signal at compound concentration 62.6401 nM (CDK12–cyclin K and DDB1; compound concentration 62.6401 nM, raw replicate titration data): 4.1015 and 4.249 and 4.2539 and 4.27
TR-FRET signal at compound concentration 125.28 nM (CDK12–cyclin K and DDB1; compound concentration 125.28 nM, raw replicate titration data): 4.175 and 4.298 and 4.2336 and 4.275
TR-FRET signal at compound concentration 244.8 nM (CDK12–cyclin K and DDB1; compound concentration 244.8 nM, raw replicate titration data): 4.152 and 4.298 and 4.309 and 4.217
TR-FRET signal at compound concentration 993.601 nM (CDK12–cyclin K and DDB1; compound concentration 993.601 nM, raw replicate titration data): 4.169 and 4.339 and 4.296 and 4.306
TR-FRET signal at compound concentration 2001.6 nM (CDK12–cyclin K and DDB1; compound concentration 2001.6 nM, raw replicate titration data): 4.114 and 4.419 and 4.291 and 4.3409
EC50 (CDK12–cyclin K and DDB1; in vitro complex formation, 50 nM CDK12–cyclin K, 100 nM DDB1, text and figures): 9 ± 0.2 nM
EC50 (CDK12–cyclin K and DDB1; source data sheet correlations): 8.77 nM
DC50 [1]: 13 nM
EC50 (HEK293T cells; Homo sapiens, HEK-293T, HEK293T viability, 72 h, compound alone, read-out: Cellular assays EC50): 101 nM
Toxicity rescue (HEK293T cells; MLN4924-mediated cytotoxicity rescue, 10 µM used where n.d.): 89%
CDK inhibitory selectivity, result in words (CDK12–cyclin K; Lanthascreen across CDK2/9/12): CDK12 selective
IC50 (CDK12–cyclin K; Supplementary Table 2, read-out: Lanthascreen IC50 [nM] CDK12): 289 nM
Lanthascreen raw signal, sheet CDK12 (CDK12–cyclin K; compound 0.038147 nM): 0.01361 and 0.01362
Lanthascreen raw signal, sheet CDK12 (CDK12–cyclin K; compound 0.152588 nM): 0.01347 and 0.01332
Lanthascreen raw signal, sheet CDK12 (CDK12–cyclin K; compound 0.610352 nM): 0.0127 and 0.0128
Lanthascreen raw signal, sheet CDK12 (CDK12–cyclin K; compound 9.76563 nM): 0.01118 and 0.01013
Lanthascreen raw signal, sheet CDK12 (CDK12–cyclin K; compound 39.0625 nM): 0.009017 and 0.009485
Lanthascreen raw signal, sheet CDK12 (CDK12–cyclin K; compound 156.25 nM): 0.008554 and 0.0083
Lanthascreen raw signal, sheet CDK12 (CDK12–cyclin K; compound 625 nM): 0.007301 and 0.007453
Lanthascreen raw signal, sheet CDK12 (CDK12–cyclin K; compound 2500 nM): 0.006348 and 0.005959
Lanthascreen raw signal, sheet CDK12 (CDK12–cyclin K; compound 10000 nM): 0.004442 and 0.004613
IC50 (CDK9–cyclin T; Supplementary Table 2, read-out: Lanthascreen IC50 [nM] CDK9): 4480 nM
Lanthascreen TR-FRET signal (raw ratio), sheet CDK9 (CDK9–cyclin T; compound 0.038147 nM): 0.02012 and 0.0204
Lanthascreen TR-FRET signal (raw ratio), sheet CDK9 (CDK9–cyclin T; compound 0.152588 nM): 0.02154 and 0.01902
Lanthascreen TR-FRET signal (raw ratio), sheet CDK9 (CDK9–cyclin T; compound 0.610352 nM): 0.02155 and 0.01817
Lanthascreen TR-FRET signal (raw ratio), sheet CDK9 (CDK9–cyclin T; compound 9.76563 nM): 0.02115 and 0.01877
Lanthascreen TR-FRET signal (raw ratio), sheet CDK9 (CDK9–cyclin T; compound 39.0625 nM): 0.01878 and 0.01673
Lanthascreen TR-FRET signal (raw ratio), sheet CDK9 (CDK9–cyclin T; compound 156.25 nM): 0.02006 and 0.01591
Lanthascreen TR-FRET signal (raw ratio), sheet CDK9 (CDK9–cyclin T; compound 625 nM): 0.01306 and 0.01486
Lanthascreen TR-FRET signal (raw ratio), sheet CDK9 (CDK9–cyclin T; compound 2500 nM): 0.01488 and 0.01061
Lanthascreen TR-FRET signal (raw ratio), sheet CDK9 (CDK9–cyclin T; compound 10000 nM): 0.007693 and 0.006879
Lanthascreen signal, sheet CDK2 (CDK2–cyclin A; Compound 0.038147 nM): 0.01344 and 0.01366
Lanthascreen signal, sheet CDK2 (CDK2–cyclin A; Compound 0.152588 nM): 0.01349 and 0.01367
Lanthascreen signal, sheet CDK2 (CDK2–cyclin A; Compound 0.610352 nM): 0.01404 and 0.01386
Lanthascreen signal, sheet CDK2 (CDK2–cyclin A; Compound 9.76563 nM): 0.01422 and 0.01378
Lanthascreen signal, sheet CDK2 (CDK2–cyclin A; Compound 39.0625 nM): 0.01396 and 0.01343
Lanthascreen signal, sheet CDK2 (CDK2–cyclin A; Compound 156.25 nM): 0.01511 and 0.01391
Lanthascreen signal, sheet CDK2 (CDK2–cyclin A; Compound 625 nM): 0.01354 and 0.01331
Lanthascreen signal, sheet CDK2 (CDK2–cyclin A; Compound 2500 nM): 0.01311 and 0.01172
Lanthascreen signal, sheet CDK2 (CDK2–cyclin A; Compound 10000 nM): 0.009843 and 0.008946
IC50 (CDK2–cyclin A; Supplementary Table 2, read-out: Lanthascreen IC50 [nM] CDK2): 5730 nM
